How the values were obtained:
[1] = biological target: α7 nicotinic ACh receptors (Homo sapiens, UniProt P36544); test: Electrophysiology, dose-response at α7 nicotinic ACh receptors; format: cell-based
nicotinic α7 receptor = nicotinic α7 receptor (Homo sapiens, UniProt P36544); test: Electrophysiology, co-application with ACh (hump currents, Dynaflow chip); format: cell-based
Experimental: Hump currents are defined as the tail current observed during co-application with endogenous ACh following agonist removal.
The channels were prepared as follows: Control solution (channel #2), application ligand itself (channel #3), application of acetylcholine itself (channel #1), and application of mixture of acetylcholine and ligand (channel #4).
Curve 1, FIG. 7B: The bar above the curve indicates time of ACh application. The curve represents current induced by a one second application of 70 μM ACh. The curve illustrates the result from moving the cell from channel #2 to channel #1 for a 1 second application of ACh and back to channel 2 (washout).
Curve 4, FIG. 7B: Curve 4 represents a repetition of Curve 1 at the end of measurements after application of the ligand and ACh/ligand mixture (recovery).
Curve 2, FIG. 7B: The down/up arrows indicates time of application.

Sprague-Dawley rats = test: Complete Freund's adjuvant (CFA)-induced thermal hyperalgesia; format: in vivo, rat; settings: 0.1, 1 or 10 mg/kg s.c., 1 hour post-dose, vs vehicle
Excerpt: Briefly, adult male Sprague-Dawley rats (BioLasco, Taiwan) weighing 180±20 g on receipt were randomly assigned to treatment groups of n=8 per group. […] A subject was placed within a plastic box atop an elevated glass floor and a light beam located under the glass floor was directed at the plantar surface of the right hind paw. The time required for the animal to withdraw the paw from the thermal stimulus was automatically recorded. The intensity of the light was adjusted to evoke an average group baseline latency from 12-14 seconds (pre-CFA) and a cut-off latency of 20 seconds was imposed. The latency for paw withdrawal was obtained for each rat and defined as the heat pain threshold.
Test substance, morphine and vehicle were administered by subcutaneous (s.c.) injection at time 0. The post-treatment level of thermal hyperalgesia was then measured at 60 minutes post-treatment. One-way ANOVA followed by Dunnett's test was applied for comparison between test substance treated groups and vehicle control group. Activity was considered significant at the P<0.05 level.

[2] = system: STZ rat model of diabetic neuropathy; test: Streptozotocin (STZ)-induced diabetic neuropathy, Von Frey allodynia; format: in vivo; settings: for Tactile allodynia (Von Frey): 30 min after administration
Experimental: Diabetes was induced by a 0.5 ml injection of streptozotocin (60 mg/kg) dissolved in citrate buffer (pH=6) into the tail vein of each rat. The development of diabetes was confirmed by measuring the blood glucose levels (BGL) of all animals on study day 3 (BGL>300 mg/dL). […] These animals were tested again for their BGL at study day 23.
(2S,3R)—N-2-((3-pyridinyl)methyl)-1-azabicyclo[2.2.2]oct-3-yl)-3,5-difluorobenzamide (0.1, 1 or 10 mg/kg p.o.) was administered as a solution of the hydrochloride salt in water once daily starting on study day 14 or study day 16 and continuing through study day 21 or 23, respectively. The control article gabapentin (in 0.9% saline, 150 mg/kg i.p.) was only administered on allodynia test days. Test item, vehicle or control article administration was based on evaluation of allodynia on study day 14. If allodynia was not present on study day 14, the animal was evaluated again at study day 16. Pain response was measured either on study days 14 and 21 or 16 and 23, 30 minutes after Test Item administration.
For the allodynia assessments, Von Frey filaments were used according to the methods of Chaplan and colleagues (1994). Briefly, the rats were placed in an enclosure and positioned on a metal mesh surface, but allowed to move freely. The rats' cabins were covered with red cellophane to diminish environmental distributions. The test began after cessation of exploratory behavior.
When the tip of a Von Frey fiber of given length and diameter was pressed against the skin at right angles, the force of application increases as long as the researcher continued to advance the probe until the fiber bent. After the fiber bent, the probe was advanced, causing the fiber to bend more, but without additional force being applied. The animal would indicate sensation by pulling back its paw. In the absence of a paw withdrawal response to the initially selected filament, a stronger stimulus was presented: in the event of paw withdrawal, the next weaker stimulus was chosen. In this fashion, the resulting pattern of positive and negative responses was used to determine the paw withdrawal threshold.
The set of Von Frey monofilaments provide an approximate logarithmic scale of actual force and a linear scale of perceived intensity. Below is a table showing the force (g) and its corresponding size of monofilaments.
All normally distributed data are presented as means±SEM, as well as the animals' individual values followed by a student T-test (Software: Microsoft® Excel). A p value<0.05 is considered to represent a significant difference. Due to the non-normal distribution of the allodynia data, descriptions of those data are provided as both mean (+SEM) and median values in order to represent their imprecise nature and skewed distribution.

[3] = system: ovalbumin-sensitized mice; test: Airway hyperresponsiveness, Penh response to methacholine; format: in vivo, mouse; settings: for Methacholine-induced increase in Penh values: FIG. 21
Experimental: (§1) Using the method of Hamelmann et al, (2S,3R)—N-2-((3-pyridinyl)methyl)-1-azabicyclo[2.2.2]oct-3-yl)-3,5-difluorobenzamide was evaluated for possible inhibition of airway hyper-responsiveness in mice. Briefly, ovalbumin (OVA)-sensitized animals, 12 animals per group, were challenged by nasal inhalation with aerosolized 5% OVA for 25 min on days 21, 23, and 25. The mice were treated with vehicle or (2S,3R)—N-2-((3-pyridinyl)methyl)-1-azabicyclo[2.2.2]oct-3-yl)-3,5-difluorobenzamide subcutaneously (s.c.) twice daily from day 21 to day 26 or once daily intratracheally (i.t.), preceding ovalbumin aerosol challenge by 30 min on days 21, 23 and 25 as well as methacholine challenge or bronchoalveolar lavage fluids (BALF) harvest on day 26. Dexamethasone, the reference standard, was administered at 3 mg/kg orally (p.o.) once daily 60 min before OVA challenge on day 21, 23 and 25 and 60 min before methacholine provocation or BALF harvest on day 26. Noninvasive measurements of airway responsiveness were performed by using whole body plethysmography, in which increases in enhanced pause (Penh) serve as an index of airway obstruction. Responses to inhaled methacholine were measured and calculated as percentage of respective baseline values. Unpaired Student's t-test was used for comparison between the vehicle control and the sham group; one-way ANOVA and Dunnett's post-hoc analyses were applied for comparison between the vehicle control and treated groups. Statistical significance is considered at P<0.05.

[4] = system: ovalbumin-sensitized mice; test: White blood cell and differential cell counts in BALF; format: in vivo, mouse
Experimental: as §1

Chain of nicotinic α7 receptor (P36544 23-502): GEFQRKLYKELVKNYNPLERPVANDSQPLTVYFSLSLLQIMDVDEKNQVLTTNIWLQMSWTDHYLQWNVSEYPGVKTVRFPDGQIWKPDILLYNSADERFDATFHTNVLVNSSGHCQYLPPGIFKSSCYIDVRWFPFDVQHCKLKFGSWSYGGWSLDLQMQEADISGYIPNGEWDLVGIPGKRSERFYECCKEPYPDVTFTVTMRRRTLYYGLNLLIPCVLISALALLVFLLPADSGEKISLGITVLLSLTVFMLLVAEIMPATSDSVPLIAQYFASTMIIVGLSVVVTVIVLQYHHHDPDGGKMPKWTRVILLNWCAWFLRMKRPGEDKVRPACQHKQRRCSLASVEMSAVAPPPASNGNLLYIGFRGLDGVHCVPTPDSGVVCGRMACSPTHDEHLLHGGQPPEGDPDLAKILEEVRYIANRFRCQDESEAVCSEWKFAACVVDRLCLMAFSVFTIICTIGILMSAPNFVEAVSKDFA
Chain of α7 nicotinic ACh receptors (P36544 23-502): as above

SMILES: O=C(N[C@@H]1C2CCN(CC2)[C@H]1Cc1cccnc1)c1cc(F)cc(F)c1 [Compound A]
- Functional mode at the α7 NNR [1]: partial agonist
- Hump current on application of compound following ACh (nicotinic α7 receptor; 200 nM compound with ACh, Curve 3 FIG. 7B): profound “hump” current
- Current produced by compound alone (nicotinic α7 receptor; 200 nM, 5 second application, Curve 2 FIG. 7B): do not produce robust macro currents
- Concentration at EMAX of hump current (nicotinic α7 receptor; 100-500 nM range, n=4, FIG. 7C): approximately 500 nM
- Effect on ACh-induced current on co-application with ACh (nicotinic α7 receptor; FIG. 6): enhanced ACh-induced current
- Analgesic effect on CFA-induced thermal hyperalgesia (Sprague-Dawley rats): not associated with any significant analgesic effect
- Diabetic neuropathy pain, Von Frey assessment ([2]; 1 mg/kg and 10 mg/kg, compared to vehicle, FIG. 14): effective in reducing diabetic neuropathy pain
- Tactile allodynia (Von Frey) ([2]; 1 mg/kg p.o., study days 14/16, vs pretreatment p<0.01, vs vehicle p<0.05): inhibited allodynia
- Tactile allodynia (Von Frey) ([2]; 1 mg/kg p.o., study days 21/23, vs pretreatment p=0.012): inhibited allodynia
- Tactile allodynia (Von Frey) ([2]; 10 mg/kg p.o., study days 14/16, vs pretreatment p=0.012): inhibited allodynia
- Tactile allodynia (Von Frey) ([2]; 10 mg/kg p.o., study days 21/23, vs vehicle p<0.05): inhibited allodynia
- Methacholine-induced increase in Penh values ([3]; 10 mg/kg IT qd): significant inhibition
- Methacholine-induced increase in Penh values ([3]; 0.1, 1, and 10 mg/kg bid s.c.): significant inhibition
- Protection against airway hyper-responsiveness (summary) ([3]; 0.1, 1 and 10 mg/kg bid s.c. and 10 mg/kg i.t.): significant protection against airway hyper-responsiveness
- Monocytes in BALF ([4]; 10 mg/kg SC): reduced
- Total WBC and eosinophils in BALF ([4]; 0.1 and 1 mg/kg SC): significantly reduced
- Lymphocytes in BALF ([4]; 0.1 and 1 mg/kg SC and 10 mg/kg IT): reduced
- Eosinophils and white blood cells in BALF (summary) ([4]; multiple administrations, lacks a consistent dose-response relationship): significant reduction in eosinophils and white blood cells in BALF
